Laboratory results from patent publication US20090087870A1, “HEMATOLOGICAL ASSAY AND KIT” (DSM IP ASSETS B.V., priority 2002, published 2009).

Columns and labels:
thrombin = thrombin (Homo sapiens, UniProt P00734); details: thrombin substrate, substrate-thrombin reaction; cited from earlier work
[1] = test system: thrombin formation in plasma samples from healthy volunteers and hemophilia A patients; assay: onset of thrombin formation in the inventive assay compared with the aPTT (onset of clotting by fibrin formation); type: biochemical; details: 250 μmol/l substrate added to aPTT activation (aluminium silicate, phospholipids, CaCl2); 80 plasma samples; FIG. 11
Text: FIG. 11 compares the detection of the onset of coagulation by the Fibrin Formation method and by the inventive method. For this experiment 80 plasma samples from healthy volunteers and hemophilia A patients were clotted by the addition of a contact phase activator (aluminium silicate, Sigma, St. Louis, USA), phospholipids (rabbit brain cephalin, Pentapharm, Basle) and CaCl2 (Sigma, St. Louis, USA). This procedure is called “Activated Partial Thromboplastin time” (aPTT). The time from the start of the procedure till clotting is detected is the aPTT. The inventive assay was performed using the identical activation procedure as the aPTT. The difference between the two procedures was the addition of the fast chromogenic substrate • (H-D-CHG-Ala-Arg-pNa.2AcOH, 250 μmol/l, Pentapharm) and the fibrin polymerisation inhibitor H-Gly-Pro-Arg-Pro-OH AcOH (5 mg/ml, Pentapharm) in the inventive assay.

Substance | Km (thrombin) [µM] | effect on onset of thrombin formation [1]
H-D-CHG-Ala-Arg-pNa.2AcOH | 15.9 | delayed the onset of the thrombin formation
H-β-Ala-Gly-Arg-pNA°2AcOH | 2000 | –
